Laboratory results from patent EP4768499A1, “MACROCYCLIC PEPTIDE COMPOUND HAVING CELL MEMBRANE PERMEABILITY AND METABOLIC STABILITY, AND LIBRARY CONTAINING SAME” (Chugai Seiyaku Kabushiki Kaisha, priority 2023, dated 2025).
Starred links: 1 amine or outer side, 2 acyl side, 3 side chain; linkers in the order of their positions; H or OH if unused. Positions of bridges follow the written chain, without caps; N, C: chain ends. Non-standard residues stand in square brackets, D forms with d. Residues, ends and D or L forms follow the SMILES beside them. *: point of attachment. NMeF = CN[C@@H](Cc1ccccc1)C(=O)O; NMeGABA = CN(CCCC(=O)[*:2])[*:1]; hPhe = N[C@@H](CCc1ccccc1)C(=O)O; NMeβAla = CN(CCC(=O)[*:2])[*:1]; NMeL = CN[C@@H](CC(C)C)C(=O)O; dNMeV = CN[C@@H](C(=O)O)C(C)C; NMeV = CN[C@H](C(=O)O)C(C)C; d(β3hA) = C[C@@H](N)CC(=O)O; NMeAbu = CC[C@H](NC)C(=O)O; NMeA = CN[C@@H](C)C(=O)O; Piperidide = C1CCN(*)CC1; dNMeA = CN[C@H](C)C(=O)O; Abu = CC[C@H](N)C(=O)O; NBuGly = CCCCNCC(=O)O; Sar = CNCC(=O)O; tBu = CC(C)(C)*

Tests used:
[1] = tested on: Caco-2 cells; assay: Membrane permeability test using Caco-2 cells with preincubation; format: in vitro ADME; details: Caco-2 cells, preincubation 20 to 24 hours; apical FaSSIF/HBSS 1% DMSO pH 6.0, basal HBSS 4% BSA pH 7.4; basal sample at 180 minutes
Experimental: (§1) The permeability coefficient (Caco-2 Papp (cm/sec)) is calculated using a numerical expression 1. [Expression 1] Papp = (1)/(C1 (0) × S) × (dQ)/(dt) [formula] dQ/dt represents the permeation rate of drug (the amount of drug appearing on the Basal side per unit time), S represents the total surface area of cells, and C1(0) represents the concentration of drug added on the Apical side.
(§2) Using a mixed medium of FaSSIF containing 1% DMSO and DMEM as the apical medium, and DMEM as the basal medium, Caco-2 cells and peptide compounds are preincubated for 20 to 24 hours under conditions of 5% CO2, 37°C, and 80 rpm. Afterward, the culture medium on the Apical side and the Basal side are aspirated and washed, the peptide compound was added to a FaSSIF/HBSS buffer solution containing 1% DMSO (1% DMSO) (pH 6.0) at the Apical side, a HBSS buffer solution containing 4% BSA (pH 7.4) was added to the Basal side, and measurement of membrane permeability is started. Each well is shaken under 5% CO2 at 37°C and 80 rpm, and at 180 minutes after the start of shaking, a sample on the Basal side is collected. The amount of peptide compounds in the sample was measured using LCMS, and the membrane permeability coefficient was calculated from the permeation amount (Table 7). When calculating the membrane permeability coefficient (Papp) from the permeation amount, the following expression can be used. Papp = (dQ)/(dt) × (1)/(C1 (0) × S) [formula]
(§3) dQ/dt represents the permeation rate of drug (the amount of drug appearing on the Basal side per unit time), C1(0) represents the concentration of drug added on the Apical side, and S represents the total surface area of cells.

[2] = as above; format: in vitro ADME; details: Caco-2; preincubation 20 to 24 hours; Apical FaSSIF/HBSS pH 6.0, Basal HBSS 4% BSA pH 7.4; 180 minutes; read-out: Caco2 Papp
Experimental: as §1, §2, §3

[3] = Metabolic stability test: liver microsomal stability assay; format: in vitro ADME, mouse; details: mouse liver microsomes 0.5 mg protein/mL, compound 1 µM; for microsomal CLint at 1 µM: male, pH 7.4, presence of NADPH, read-out: Mouse Hepatic Microsome CLh,int NADPH(+); for Mouse Hepatic Microsome CLh,int NADPH(-): absence of NADPH
Experimental: Under the presence and absence of NADPH, a microsome solution prepared to a concentration of 0.5 mg protein/mL using 100 mM phosphate buffer (pH 7.4) with mouse liver microsomes (male, Corning Incorporated, USA) and the compound at a concentration of 1 µM were subjected to a metabolic reaction for 22 minutes, 44 minutes, or 66 minutes. Protein removal processing was performed over time using acetonitrile, and the remaining amount of unchanged compound was analyzed using LCMS to calculate the intrinsic hepatic clearance (CLh, int) (Table 6).

| Caco2 Papp (10^-6 cm/sec) [1] | Papp A→B [2] [×10⁻⁶ cm/s] | microsomal CLint at 1 µM [3] [µL/min/mg] | Mouse Hepatic Microsome CLh,int NADPH(-) [3] [µL/min/mg Protein] | SMILES |
| --- | --- | --- | --- | --- |
| 4.30 10^-6 cm/sec | 4.3 | 41.3 | 20.1 | CC[C@@H]1NC(=O)[C@H](Cc2ccccc2)N(C)C(=O)[C@H](COC(C)(C)C)NC(=O)[C@H](CC(C)C)N(C)C(=O)[C@H](C)N(C)C(=O)[C@@H]2CCCN2C(=O)[C@H]([C@@H](C)O)NC(=O)[C@H](CC(C)C)N(C)C(=O)[C@H]([C@@H](C)CC)NC(=O)[C@H](Cc2ccccc2)N(C)C(=O)[C@H](C(C)C)NC(=O)[C@@H](C)N(C)C(=O)C[C@@H](C)NC(=O)[C@H](C(C)C)N(C)C1=O [pd012] (cyclo([Abu][NMeV][d(β3hA)][dNMeA]V[NMeF]I[NMeL]TP[NMeA][NMeL]S(tBu)[NMeF])) |
| 0.04 10^-6 cm/sec | 0.04 | 12.1 | 6.1 | CC[C@@H]1NC(=O)[C@H](Cc2ccccc2)N(C)C(=O)[C@H](C(C)C)NC(=O)[C@H](COC(C)(C)C)NC(=O)[C@H](C)N(C)C(=O)CN(C)C(=O)[C@H](CC(C)C)NC(=O)[C@@H]2CCCN2C(=O)[C@H](C(C)C)N(C)C(=O)[C@H](C)NC(=O)[C@H](CC)N(C)C(=O)[C@@H](C(C)C)NC(=O)C[C@@H](C(=O)N2CCCCC2)NC(=O)[C@H](C(C)C)N(C)C1=O [pd013] ([dV][NMeAbu]A[NMeV]PL[Sar][NMeA]S(tBu)V[NMeF][Abu][NMeV]D-Piperidide; lactam N-14) |
| <0.11 10^-6 cm/sec | < 0.11 | 31.1 | 33.0 | CC(C)C[C@@H]1NC(=O)[C@@H]2CCCN2C(=O)[C@H](C(C)C)N(C)C(=O)[C@H](C)NC(=O)[C@H](CC(C)C)N(C)C(=O)[C@@H](C(C)C)NC(=O)C[C@@H](C(=O)N2CCCCC2)NC(=O)[C@H](C(C)C)N(C)C(=O)[C@H](C)NC(=O)[C@H](CC(C)C)N(C)C(=O)[C@H](C(C)C)NC(=O)[C@H](COC(C)(C)C)NC(=O)[C@H](CC(C)C)N(C)C(=O)[C@H](Cc2ccccc2)N(C)C1=O [pd014] ([dV][NMeL]A[NMeV]PL[NMeF][NMeL]S(tBu)V[NMeL]A[NMeV]D-Piperidide; lactam N-14) |
| 0.09 10^-6 cm/sec | 0.09 | 39.4 | 40.1 | CC[C@H](C)[C@@H]1NC(=O)[C@H](C)NC(=O)[C@H](CC(C)C)N(C)C(=O)[C@H](COC(C)(C)C)NC(=O)[C@H](CC(C)C)N(C)C(=O)[C@@H]2CCCN2C(=O)[C@H](Cc2ccccc2)NC(=O)CCN(C)C(=O)[C@H](CC(C)C)N(C)C(=O)CCCN(C)C(=O)C[C@@H](C(=O)N2CCCCC2)NC(=O)[C@H](Cc2ccccc2)N(C)C(=O)[C@H](CC(C)C)NC(=O)[C@H](CC)N(C)C1=O [pd017] ([NMeGABA][NMeL][NMeβAla]FP[NMeL]S(tBu)[NMeL]AI[NMeAbu]L[NMeF]D-Piperidide; lactam N-14) |
| 0.11 10^-6 cm/sec | 0.11 | 42.3 | 34.1 | CCCCN1CC(=O)N(C)[C@@H](CC)C(=O)N[C@@H](CC(C)C)C(=O)N[C@H](C(=O)N2CCCCC2)CC(=O)N(C)[C@@H](C)C(=O)N[C@@H]([C@@H](C)CC)C(=O)N(C)[C@@H](Cc2ccccc2)C(=O)N(C)[C@@H](CC(C)C)C(=O)N[C@@H](C(C)C)C(=O)N(C)CC(=O)N[C@@H](CC(C)C)C(=O)N(C)[C@@H](Cc2ccccc2)C(=O)N(C)[C@@H](C)C(=O)N[C@@H](CC(C)C)C1=O [pd018] ([NMeA]I[NMeF][NMeL]V[Sar]L[NMeF][NMeA]L[NBuGly][NMeAbu]LD-Piperidide; lactam N-14) |
| <0.11 10^-6 cm/sec | < 0.11 | 34.7 | 24.9 | CCCCN1CC(=O)N[C@@H](C)C(=O)N(C)[C@@H](Cc2ccccc2)C(=O)N[C@@H](CC(C)C)C(=O)N[C@@H](C)C(=O)N(C)[C@@H](C(C)C)C(=O)N[C@H](C(=O)N2CCCCC2)CC(=O)N[C@H](C(C)C)C(=O)N(C)[C@@H](Cc2ccccc2)C(=O)N[C@@H](CC)C(=O)N(C)[C@@H](C(C)C)C(=O)N(C)CCC(=O)N[C@@H]([C@@H](C)O)C(=O)N(C)[C@@H](CC(C)C)C1=O [pd019] ([dV][NMeF][Abu][NMeV][NMeβAla]T[NMeL][NBuGly]A[NMeF]LA[NMeV]D-Piperidide; lactam N-14) |
| <0.11 10^-6 cm/sec | < 0.11 | 33.3 | 24.9 | CC[C@H]1C(=O)N[C@@H](C(C)C)C(=O)N[C@H](C(=O)N2CCCCC2)CC(=O)N(C)[C@H](C(C)C)C(=O)N(C)[C@@H](Cc2ccccc2)C(=O)N[C@@H](CC(C)C)C(=O)N(C)CC(=O)N[C@@H](CC(C)C)C(=O)N[C@@H]([C@@H](C)O)C(=O)N(C)[C@@H](CC(C)C)C(=O)N(C)[C@@H](C(C)C)C(=O)N[C@@H](C)C(=O)N[C@@H](COC(C)(C)C)C(=O)N(C)[C@@H](Cc2ccccc2)C(=O)N1C [pd020] ([dNMeV][NMeF]L[Sar]LT[NMeL][NMeV]AS(tBu)[NMeF][NMeAbu]VD-Piperidide; lactam N-14) |
| 0.15 10^-6 cm/sec | 0.15 | 37.1 | 36.3 | CC[C@@H]1NC(=O)[C@H](Cc2ccccc2)N(C)C(=O)[C@H]([C@@H](C)CC)NC(=O)[C@H](CC(C)C)N(C)C(=O)[C@H](CC(C)C)NC(=O)CCN(C)C(=O)C[C@@H](C(=O)N2CCCCC2)NC(=O)[C@H](C(C)C)NC(=O)[C@H](CC(C)C)N(C)C(=O)[C@H](C)N(C)C(=O)[C@H]([C@@H](C)O)NC(=O)[C@H](CC(C)C)N(C)C(=O)[C@H](COC(C)(C)C)NC(=O)[C@H](Cc2ccccc2)N(C)C1=O [pd021] ([NMeβAla]L[NMeL]I[NMeF][Abu][NMeF]S(tBu)[NMeL]T[NMeA][NMeL]VD-Piperidide; lactam N-14) |
| 0.15 10^-6 cm/sec | 0.15 | 44.4 | 36.4 | CC[C@H](C)[C@@H]1NC(=O)[C@H](COC(C)(C)C)NC(=O)[C@H]([C@@H](C)O)NC(=O)[C@H](Cc2ccccc2)N(C)C(=O)[C@H](C)N(C)C(=O)[C@H](CC(C)C)N(C)C(=O)[C@H](CCc2ccccc2)NC(=O)[C@@H]2CCCN2C(=O)[C@H]([C@@H](C)CC)NC(=O)[C@H](CC(C)C)N(C)C(=O)[C@H](C)NC(=O)CCCN(C)C(=O)C[C@@H](C(=O)N2CCCCC2)NC(=O)[C@H](CC(C)C)N(C)C1=O [pd022] ([NMeGABA]A[NMeL]IP[hPhe][NMeL][NMeA][NMeF]TS(tBu)I[NMeL]D-Piperidide; lactam N-14) |
| 0.03 10^-6 cm/sec | 0.03 | 43.3 | 26.2 | CC[C@@H]1NC(=O)[C@H](CC(C)C)N(C)C(=O)[C@H](C)NC(=O)[C@@H]2CCCN2C(=O)[C@H]([C@@H](C)CC)NC(=O)[C@H](CC(C)C)N(C)C(=O)[C@H](CCc2ccccc2)NC(=O)CCCN(C)C(=O)C[C@@H](C(=O)N2CCCCC2)NC(=O)[C@H](CC(C)C)N(C)C(=O)[C@H]([C@@H](C)CC)NC(=O)[C@H](C)N(C)C(=O)[C@H]([C@@H](C)O)NC(=O)[C@H](Cc2ccccc2)N(C)C1=O [pd023] ([NMeGABA][hPhe][NMeL]IPA[NMeL][Abu][NMeF]T[NMeA]I[NMeL]D-Piperidide; lactam N-14) |

| SMILES | Caco2 Papp (10^-6 cm/sec) [1] | Papp A→B [2] [×10⁻⁶ cm/s] | microsomal CLint at 1 µM [3] [µL/min/mg] | Mouse Hepatic Microsome CLh,int NADPH(-) [3] [µL/min/mg Protein] |
| --- | --- | --- | --- | --- |
| CC[C@@H]1NC(=O)[C@H](CC(C)C)N(C)C(=O)[C@H]([C@@H](C)CC)NC(=O)CN(C)C(=O)C[C@@H](C)NC(=O)[C@H](C(C)C)N(C)C(=O)[C@H](COC(C)(C)C)NC(=O)[C@H](CC(C)C)N(C)C(=O)[C@H](Cc2ccccc2)N(C)C(=O)[C@H](C)NC(=O)[C@H](C(C)C)NC(=O)CN(C)C(=O)[C@H]([C@@H](C)O)NC(=O)[C@H](CC(C)C)N(C)C1=O [pd011] (cyclo(A[NMeF][NMeL]S(tBu)[NMeV][d(β3hA)][Sar]I[NMeL][Abu][NMeL]T[Sar]V)) | 0.11 10^-6 cm/sec | 0.11 | 27.3 | 22.9 |
